# Measurements reported in the supplement of paper PMC10307832.
# Tests used:
# Assay in all cases: relative viability (nuclei count vs DMSO), 5 days (fraction); higher = more cells survive
# [1] = compound: CCOC1=CC=CC=C1N=NC2=C(NN(C2=O)C3=NC(=CS3)C4=CC=CC=C4)C [BAM7] + CC(=O)Nc1cccc(-n2c(=O)n(C3CC3)c(=O)c3c(Nc4ccc(I)cc4F)n(C)c(=O)c(C)c32)c1 [Trametinib] (partner 0.02 µM)
# Outline: (§1)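 Values are medians from duplicate plates. Each reflects relative viability, defined as the nuclei count of treated wells over that of vehicle wells. Lung cancer cell lines in 1536-well plates were pin-tool dosed one day after seeding with one drug alone or with a fixed anchor-drug dose plus five library-drug doses (not always all listed) in √10 steps, then fixed, stained and imaged at 4× after 5 days.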
# [2] = compound: CCOC1=CC=CC=C1N=NC2=C(NN(C2=O)C3=NC(=CS3)C4=CC=CC=C4)C [BAM7] + CC(=O)c1c(C)c2cnc(Nc3ccc(N4CCNCC4)cn3)nc2n(C2CCCC2)c1=O [Palbociclib] (partner 0.5 µM)
# Outline: as §1
# [3] = compound: CCOC1=CC=CC=C1N=NC2=C(NN(C2=O)C3=NC(=CS3)C4=CC=CC=C4)C [BAM7] + CC1(C)CCC(c2ccc(Cl)cc2)=C(CN2CCN(c3ccc(C(=O)NS(=O)(=O)c4ccc(N[C@H](CCN5CCOCC5)CSc5ccccc5)c(S(=O)(=O)C(F)(F)F)c4)cc3)CC2)C1 [Navitoclax] (partner 0.5 µM)
# Outline: as §1
# [4] = compound: CCOC1=CC=CC=C1N=NC2=C(NN(C2=O)C3=NC(=CS3)C4=CC=CC=C4)C [BAM7] + C[C@]1(O)C[C@@H](c2nc(-c3ccc4ccc(-c5ccccc5)nc4c3)c3c(N)nccn32)C1 [Linsitinib] (partner 1 µM)
# Outline: as §1
# [5] = compound: CCOC1=CC=CC=C1N=NC2=C(NN(C2=O)C3=NC(=CS3)C4=CC=CC=C4)C [BAM7] + Cc1nc(Nc2ncc(C(=O)Nc3c(C)cccc3Cl)s2)cc(N2CCN(CCO)CC2)n1 [Dasatinib] (partner 0.075 µM)
# Outline: as §1
Cell Line,relative viability ([1]; first compound 0.5 µM),relative viability ([1]; first compound 5 µM),relative viability ([1]; first compound 15.81 µM),relative viability ([1]; first compound 50 µM),relative viability ([2]; first compound 0.5 µM),relative viability ([2]; first compound 5 µM),relative viability ([2]; first compound 15.81 µM),relative viability ([2]; first compound 50 µM),relative viability ([3]; first compound 0.5 µM),relative viability ([3]; first compound 5 µM),relative viability ([3]; first compound 15.81 µM),relative viability ([3]; first compound 50 µM),relative viability ([4]; first compound 0.5 µM),relative viability ([4]; first compound 5 µM),relative viability ([4]; first compound 15.81 µM),relative viability ([4]; first compound 50 µM),relative viability ([5]; first compound 0.5 µM),relative viability ([5]; first compound 5 µM),relative viability ([5]; first compound 15.81 µM),relative viability ([5]; first compound 50 µM)
NCI-H2085,0.587,0.521,0.471,0.52,0.462,0.483,0.446,0.45,1.13,1.24,1.02,1.21,0.968,1.03,0.821,0.911,0.237,0.211,0.229,0.217
NCI-H2087,0.18,0.181,0.204,0.173,0.272,0.255,0.229,0.292,0.92,1.13,0.942,1.02,0.974,1.27,0.893,0.903,0.939,0.991,0.765,0.844
NCI-H2126,0.516,0.499,0.519,0.476,0.334,0.332,0.345,0.362,0.841,0.857,0.86,0.849,0.7,0.63,0.706,0.704,0.584,0.484,0.436,0.526
NCI-H2228,0.601,0.523,0.41,0.547,0.853,0.966,1.19,1.07,0.985,1.4,0.818,1.27,0.674,0.789,0.554,0.842,0.598,0.639,0.509,0.521
NCI-H2347,0.326,0.32,0.277,0.287,0.426,0.457,0.425,0.367,0.765,0.918,0.806,0.861,0.983,1.18,0.971,0.982,0.303,0.345,–,0.339
NCI-H2405,0.596,0.706,0.477,0.715,0.507,0.577,0.546,0.553,0.946,1.11,0.747,1,1.02,0.881,0.865,1.09,0.195,0.201,0.211,0.243
NCI-H3122,0.24,0.232,0.283,0.198,0.174,0.225,0.186,0.198,1.07,0.984,1.06,1.07,0.969,1.08,1,1.02,0.438,0.835,0.838,0.725
PC-3 [JPC-3],0.592,0.722,0.637,0.617,0.49,0.533,0.462,0.531,0.688,0.815,0.755,0.626,0.905,0.966,0.868,0.835,1.04,0.91,1.02,0.946
PC-14,0.829,0.745,0.542,0.697,0.592,0.479,0.335,0.42,1.05,1.09,1,0.938,0.984,1.04,0.953,0.975,0.229,0.211,0.228,0.295
RERF-LC-KJ,0.767,0.708,0.526,0.642,0.953,0.876,0.609,0.63,0.908,0.805,0.907,0.847,0.862,0.775,0.833,0.929,0.639,0.539,0.323,0.358
SK-LU-1,0.575,0.525,0.527,0.499,0.399,0.405,0.43,0.453,0.487,1.01,0.8,0.827,0.969,1.21,1.22,1.21,0.172,0.18,0.191,0.168
SK-MES-1,0.566,0.551,0.523,0.495,0.332,0.35,0.308,0.272,1.37,1.36,1.23,1.23,1.11,1.05,1.03,1.07,0.366,0.289,0.3,0.336
SW 1573,0.633,0.592,0.541,0.528,0.433,0.396,0.356,0.391,0.89,1.02,1.24,1.06,0.838,0.742,0.819,0.896,0.575,0.65,0.454,0.431
UMC-11,0.694,0.83,0.728,0.71,0.32,0.341,0.342,0.336,0.306,0.319,0.391,0.372,1.12,1.05,1.07,1.09,0.511,0.509,0.449,0.479
